Assay results taken from publication PMC9629815, “MK256 is a novel CDK8 inhibitor with potent antitumor activity in AML through downregulation of the STAT pathway” (Oncotarget, 2022).

What was measured:
MOLM-14 cells = assay: Cell viability dose-response matrix of MK256 and venetoclax; type: cell-based; settings: Homo sapiens, MK256 0.0 nM, 72 hrs, read-out: percentage of cell viability
Text: Our earlier experiments showing the clearly increasing expression of BCL-2 in the MOLM-14 cell line led us to ask if there was any combinational effect between MK256 and a BCL-2 inhibitor in MOLM-14 cells. To address this question, we chose venetoclax (ABT-199), an FDA-approved BCL-2 inhibitor for AML and CLL, for the combination study. We treated MOLM-14 cells with MK256 and venetoclax at a series of concentration combinations, measured cell viability, and reported the data in a dose-response matrix (Figure 8). […] We also investigated the apoptotic effect of the combination treatment in the MOLM-14 cell line (Figure 10B).
Figure 10 (A) Dose-response matrix of percentage of cell viability of 10,000 MOLM-14 cells after 72 hrs treatment of MK256 and venetoclax at various concentration combinations. (B) Annexin V staining of 10,000 MOLM-14 cells after 72 hrs treatment of MK256 and venetoclax(ABT199) at various concentration combinations. Status of cells are labeled in the graph at the upper left corner. (C) Tumor growth of MOLM-14 xenograft model. Groups of control; ABT199 (25 mg/kg); ABT199 (25 mg/kg) + MK256 (10 mg/kg); ABT199 25 mg/kg + MK256 (50 mg/kg) were shown in straight line, dotted line, 3 dashed line and 2 dashed line, respectively. ^*** P < 0.001. (D) Body weight percentage of MOLM-14 tumor model. […]

MOLM-14 xenograft model = assay: MOLM-14 xenograft efficacy study, combination with venetoclax; type: in vivo, NOD SCID mice; settings: venetoclax 25 mg/kg alone, oral once a day, 5 days on/2 days off
Procedure: In an efficacy study of the combination of MK256 and venetoclax in the MOLM-14 tumor model, we compared venetoclax 25 mg/kg, venetoclax 25 mg/kg + MK256 10 mg/kg, and venetoclax 25 mg/kg + MK256 50 mg/kg. Compounds were given orally once a day on a 5 days on/2 days off schedule.
Female NOD SCID mice were purchased from Charles River Laboratories (Wilmington, USA) or bred at the animal facilities of the University of California San Francisco. All animal experiments were carried out under protocols approved by the Institutional Animal Care and Use Committee of the University of California San Francisco. For MOLM-14 model, 200 ul of 1 × 10^6 cells combined with matrigel (v/v, 1:1) were injected subcutaneously in the right flank of NODSCID mice. Tumors were allowed to grow for two weeks to reach a tumor volume about 200 mm^3 before mice were randomly grouped. The animals were treated for three weeks on a 5 days on/2 days off schedule by oral gavage with MK256 (dissolved in saline) alone or in combination with Venetoclax (dissolved in 5% DMSO + 50% PEG 300 + 5% Tween 80 + ddH2O). […] In the combination study, MK256 (10 or 50 mg/kg) and was coadministered with Venetoclax (25 mg/kg) once a day. Tumor volume and body weight were monitored once every 3 days. Tumor volume was calculated as L × W^2/2, where L and W were the length and width of the tumor, respectively.

## CC1(C)CCC(CN2CCN(c3ccc(C(=O)NS(=O)(=O)c4ccc(NCC5CCOCC5)c([N+](=O)[O-])c4)c(Oc4cnc5[nH]ccc5c4)c3)CC2)=C(c2ccc(Cl)cc2)C1 [Venetoclax, venetoclax, reference compound]
MOLM-14 cells; Venetoclax 0.2 nM
  viability at 0.0002 µM: 65%
MOLM-14 cells; Venetoclax 1.4 nM
  viability at 0.0014 µM: 45%
MOLM-14 cells; Venetoclax 4.1 nM
  viability at 0.0041 µM: 26%
MOLM-14 cells; Venetoclax 12.3 nM
  viability at 0.0123 µM: 12%
MOLM-14 cells; Venetoclax 37 nM
  viability at 0.037 µM: 8%
MOLM-14 cells; Venetoclax 111.1 nM
  viability at 0.1111 µM: 7%
MOLM-14 cells; Venetoclax 333.3 nM
  viability at 0.3333 µM: 5%
MOLM-14 cells; Venetoclax 1000 nM
  viability at 1 µM: 2%
MOLM-14 cells; Venetoclax 3000 nM
  viability at 3 µM: 0%
MOLM-14 xenograft model
  tumor growth inhibition: 15%
